Patent publication US8791123B2, “Substituted pyrazolo[1,5-a]pyrimidine compounds as Trk kinase inhibitors” (Array Biopharma, Inc., priority 2009, dated 2014)
Where two headings read alike, the source gives them in different places.

Key:
[1] = target: TrkA (histidine-tagged recombinant human TrkA, cytoplasmic domain) (Homo sapiens (Human), UniProt P04629); assay: TrkA ELISA Assay; format: biochemical; conditions: Table 1; ELISA, 500 μM ATP; read-out: TrkA Enzyme IC50
Method: An enzyme-linked immunosorbant assay (ELISA) was used to assess TrkA kinase activity in the presence of inhibitors. Immulon 4HBX 384-well microtiter plates (Thermo part #8755) were coated with a 0.025 mg/mL solution of poly (Glu, Ala, Tyr; 6:3:1; Sigma P3899). […] The reaction mixture was removed from the plate by washing with PBS containing 0.1% (v/v) Tween 20. The phosphorylated reaction product was detected using 0.2 μg/mL of a phosphotyrosine specific monoclonal antibody (clone PY20) conjugated to horseradish peroxidase in conjunction with the TMB Peroxidase Substrate System (KPL). After the addition of 1M phosphoric acid, the chromogenic substrate color intensity was quantitated via absorbance at 450 nm.

Human Jak2 kinase domain = Human Jak2 kinase domain (Homo sapiens (Human), UniProt O60674); assay: Jak2 Inhibition Assay (Omnia kinase assay); format: biochemical; conditions: read-out: Jak2 Enzyme IC50
Chain of Human Jak2 kinase domain (O60674 808-1132): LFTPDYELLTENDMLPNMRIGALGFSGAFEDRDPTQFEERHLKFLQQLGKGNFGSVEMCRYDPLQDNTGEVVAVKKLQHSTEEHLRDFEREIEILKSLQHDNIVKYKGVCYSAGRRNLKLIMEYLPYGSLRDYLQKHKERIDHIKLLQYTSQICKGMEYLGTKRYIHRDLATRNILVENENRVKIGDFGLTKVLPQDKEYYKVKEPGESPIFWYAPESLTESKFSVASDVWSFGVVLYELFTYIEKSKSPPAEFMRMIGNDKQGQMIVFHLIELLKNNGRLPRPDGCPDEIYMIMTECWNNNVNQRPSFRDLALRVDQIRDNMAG
Method: The assays described in Examples C, D, E and F for the determination of JAK1, JAK2, JAK3 and Tyk2 kinase activity, respectively, utilized the Omnia® Kinase fluorescence peptide substrate-based technology (Invitrogen). […] The reactions were therefore read at excitation 360 nm and emission was measured at 485 nm every 50 seconds for 45 minutes using a PerkinElmer EnVision Multilabel Plate Reader.
The final buffer conditions for each of the JAK1, JAK2, JAK3 and Tyk2 assays were as follows: 25 mM HEPES, pH 7.4, 10 mM MgCl2, 0.01% Triton X-100 and 1 mM DTT.
Two-μL aliquots of these were transferred to a fresh plate for a ten-fold intermediate dilution with assay buffer. Five-μL aliquots of the diluted compounds were then transferred to 20-μL of assay mixtures described in Examples C, D, E and F for a final concentration of DMSO of 2%. […] For each plate, percent of control (POC) values were calculated for each well according to the following equation:
[formula] • where • Xmax=Average Uninhibited Controls • Xmin=Average Background IC50's were estimated from the POC's using a standard 4-parameter logistic model:
[formula] • where • A=Minimum Y (Bottom Asymptote) • B=Maximum Y (Top Asymptote) • C=EC50 • D=Slope Factor • X=Compound Concentration (nM) • Y=POC
The IC50 is defined as the concentration of inhibitor at which the POC equals 50 for the fitted curve.
Compounds of Formula I were screened for their ability to inhibit Jak2 using the general enzyme inhibition assay method, in which the assay mixture contained 500 μM ATP, 10 μM Omnia® Y7 peptide (Catalog # IVGN KNZ3071C, Invitrogen Corporation, Carlsbad, Calif.) and 4 nM Jak2 in a total volume of 20 μL. Human Jak2 kinase domain comprising amino acids 808-1132 was purchased from Invitrogen Corporation, Carlsbad, Calif. (catalog # IVGN PV4210).

[2] = Table 1, 500 μM ATP, >1000 nM when >50% inhibition not observed at 1000 nM

Chain of TrkA (histidine-tagged recombinant human TrkA, cytoplasmic domain) (P04629 440-796): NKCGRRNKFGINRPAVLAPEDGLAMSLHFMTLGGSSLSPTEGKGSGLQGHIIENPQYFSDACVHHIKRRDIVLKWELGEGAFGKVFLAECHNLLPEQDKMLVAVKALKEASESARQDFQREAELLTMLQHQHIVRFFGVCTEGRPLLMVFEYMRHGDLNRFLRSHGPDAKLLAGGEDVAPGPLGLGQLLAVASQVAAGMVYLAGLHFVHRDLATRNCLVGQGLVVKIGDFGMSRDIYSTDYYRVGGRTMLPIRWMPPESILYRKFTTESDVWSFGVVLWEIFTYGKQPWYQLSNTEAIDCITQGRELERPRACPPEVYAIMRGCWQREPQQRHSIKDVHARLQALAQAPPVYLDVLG

SMILES	IC50 [1]	IC50 (Human Jak2 kinase domain; [2])	IC50 (Human Jak2 kinase domain)
O=C(NC1CCC1)c1cnn2ccc(N3CCC[C@@H]3c3cc(F)ccc3F)nc12 [Example 14, (R)—N-cyclobutyl-5-(2-(2,5-difluorophenyl)pyrrolidin-1-yl)pyrazolo[1,5-a]pyrimidine-3-carboxamide]	0.55 nM	470 nM	
O=C(NC1CC1)c1cnn2ccc(N3CCC[C@@H]3c3cc(F)ccc3OCC(O)CO)nc12 (stereo partly drawn) [Example 210, N-cyclopropyl-5-((2R)-2-(2-(2,3-dihydroxypropoxy)-5-fluorophenyl)pyrrolidin-1-yl)pyrazolo[1,5-a]pyrimidine-3-carboxamide]	3.3 nM	> 1000 nM	
COc1ncc(F)cc1[C@H]1CCCN1c1ccn2ncc(C(=O)NCC(C)(C)O)c2n1 [Example 158, (R)-5-(2-(5-fluoro-2-methoxypyridin-3-yl)pyrrolidin-1-yl)-N-(2-hydroxy-2-methylpropyl)pyrazolo[1,5-a]pyrimidine-3-carboxamide]	9.9 nM	> 1000 nM	
CC(C)[C@@H](CO)NC(=O)c1cnn2ccc(N3CCC[C@@H]3c3cc(F)ccc3F)nc12 [Example 179, 5-((R)-2-(2,5-difluorophenyl)pyrrolidin-1-yl)-N-((S)-1-hydroxy-3-methylbutan-2-yl)pyrazolo[1,5-a]pyrimidine-3-carboxamide]	8.5 nM	> 1000 nM	
O=C(NC1CCC1)c1cnn2ccc(N3CCC[C@@H]3c3cncc(F)c3)nc12 [Example 101, (R)-N-cyclobutyl-5-(2-(5-fluoropyridin-3-yl)pyrrolidin-1-yl)pyrazolo[1,5-a]pyrimidine-3-carboxamide]	11.7 nM	> 1000 nM	
C[C@H](O)CNC(=O)c1cnn2ccc(N3CCC[C@@H]3c3cc(F)ccc3F)nc12 [Example 166, 5-((R)-2-(2,5-difluorophenyl)pyrrolidin-1-yl)-N-(2-hydroxypropyl)pyrazolo[1,5-a]primidine-3-carboxamide]	2.4 nM	> 1000 nM	
NC(=O)c1cnn2ccc(N3CCC[C@@H]3c3cc(F)cc(OCCN4CCOCC4)c3)nc12 [Example 76, (R)-5-(2-(3-fluoro-5-(2-morpholinoethoxy)phenyl)pyrrolidin-1-yl)pyrazolo[1,5-a]pyrimidine-3-carboxamide]	90 nM	> 1000 nM	
Cn1cc(F)cc([C@H]2CCCN2c2ccn3ncc(C(=O)N[C@H](CO)C(C)(C)C)c3n2)c1=O [Example 233, 5-((R)-2-(5-fluoro-1-methyl-2-oxo-1,2-dihydropyridin-3-yl)pyrrolidin-1-yl)-N-((S)-1-hydroxy-3,3-dimethylbutan-2-yl)pyrazolo[1,5-a]pyrimidine-3-carboxamide]	75.9 nM	> 1000 nM	
O=C(NCCc1c[nH]cn1)c1cnn2ccc(N3CCC[C@@H]3c3cc(F)ccc3F)nc12 [Example 25, (R)—N-(2-(1H-imidazol-4-yl)ethyl)-5-(2-(2,5-difluorophenyl)pyrrolidin-1-yl)pyrazolo[1,5-a]pyrimidine-3-carboxamide]	0.4 nM	> 1000 nM	
COc1ncc(F)cc1[C@H]1CCCN1c1ccn2ncc(C(=O)N3CC(O)C3)c2n1 [Example 139, (R)-(5-(2-(5-fluoro-2-methoxypyridin-3-yl)pyrrolidin-1-yl)pyrazolo[1,5-a]pyrimidin-3-yl)(3-hydroxyazetidin-1-yl)methanone]	32.7 nM	> 1000 nM	
CC(C)(C)NC(=O)c1cnn2ccc(N3CCC[C@@H]3c3cncc(F)c3)nc12 [Example 53, (R)—N-tert-butyl-5-(2-(5-fluoropyridin-3-yl)pyrrolidin-1-yl)pyrazolo[1,5-a]pyrimidine-3-carboxamide]	10.4 nM	> 1000 nM	
COc1ncc(F)cc1[C@H]1CCCN1c1ccn2ncc(C(=O)NCCO)c2n1 [Example 155, (R)-5-(2-(5-fluoro-2-methoxypyridin-3-yl)pyrrolidin-1-yl)-N-(2-hydroxyethyl)pyrazolo[1,5-a]pyrimidine-3-carboxamide]	0.2 nM	> 1000 nM	
O=C(N[C@@H]1CCC[C@@H]1O)c1cnn2ccc(N3CCC[C@@H]3c3cncc(F)c3)nc12 [Example 135, 5-((R)-2-(5-fluoropyridin-3-yl)pyrrolidin-1-yl)-N-((1R,2S)-2-hydroxycyclopentyl)pyrazolo[1,5-a]pyrimidine-3-carboxamide]	142 nM	> 1000 nM	
CC(C)(CO)NC(=O)c1cnn2ccc(N3CCC[C@@H]3c3cncc(F)c3)nc12 [Example 132, (R)-5-(2-(5-fluoropyridin-3-yl)pyrrolidin-1-yl)-N-(1-hydroxy-2-methylpropan-2-yl)pyrazolo[1,5-a]pyrimidine-3-carboxamide]	44.4 nM	> 1000 nM	
Cn1cc(CNC(=O)c2cnn3ccc(N4CCC[C@@H]4c4cc(F)ccc4F)nc23)cn1 [Example 22, (R)-5-(2-(2,5-difluorophenyl)pyrrolidin-1-yl)-N-((1-methyl-1H-pyrazol-4-yl)methyl)pyrazolo[1,5-a]pyrimidine-3-carboxamide]	2.1 nM	> 1000 nM	
COc1ccc(F)cc1[C@H]1CCCN1c1ccn2ncc(C(=O)NC[C@@H](O)CO)c2n1 [Example 56, N—((R)-2,3-dihydroxypropyl)-5-((R)-2-(5-fluoro-2-methoxyphenyl)pyrrolidin-1-yl)pyrazolo[1,5-a]pyrimidine-3-carboxamide]	2.4 nM		> 1000 nM
O=C(NC1CC1)c1cnn2ccc(N3CCC[C@@H]3c3cccc(F)c3)nc12 [Example 37, (R)—N-cyclopropyl-5-(2-(3-fluorophenyl)pyrrolidin-1-yl)pyrazolo[1,5-a]pyrimidine-3-carboxamide]	1.65 nM	> 1000 nM	
Cc1ccc(CNC(=O)c2cnn3ccc(N4CCC[C@@H]4c4cc(F)ccc4F)nc23)o1 [Example 5, (R)-5-(2-(2,5-difluorophenyl)pyrrolidin-1-yl)-N-((5-methylfuran-2-yl)methyl)pyrazolo[1,5-a]pyrimidine-3-carboxamide]	0.95 nM	> 1000 nM	
O=C(NC[C@@H](O)CO)c1cnn2ccc(N3CCC[C@@H]3c3cc(F)ccc3C(F)(F)F)nc12 [Example 63, N—((R)-2,3-dihydroxypropyl)-5-((R)-2-(5-fluoro-2-(trifluoromethyl)phenyl)pyrrolidin-1-yl)pyrazolo[1,5-a]pyrimidine-3-carboxamide]	4.55 nM	> 1000 nM	
O=C(Nc1ccc(F)cn1)c1cnn2ccc(N3CCC[C@@H]3c3cncc(F)c3)nc12 [Example 95, (R)—N-(5-fluoropyridin-2-yl)-5-(2-(5-fluoropyridin-3-yl)pyrrolidin-1-yl)pyrazolo[1,5-a]pyrimidine-3-carboxamide]	5.4 nM	> 1000 nM	
CC1(O)CN(C(=O)c2cnn3ccc(N4CCC[C@@H]4c4cc(F)ccc4F)nc23)C1 [Example 32, (R)-(5-(2-(2,5-difluorophenyl)pyrrolidin-1-yl)pyrazolo[1,5-a]pyrimidin-3-yl)(3-hydroxy-3-methylazetidin-1-yl)methanone]	5.3 nM	> 1000 nM	
COc1ncc(F)cc1[C@H]1CCCN1c1ccn2ncc(C(=O)NC3CCN(CCO)CC3)c2n1 [Example 159, (R)-5-(2-(5-fluoro-2-methoxypyridin-3-yl)pyrrolidin-1-yl)-N-(1-(2-hydroxyethyl)piperidin-4-yl)pyrazolo[1,5-a]pyrimidine-3-carboxamide]	4.3 nM	> 1000 nM	
O=C(c1cnn2ccc(N3CCC[C@@H]3c3cncc(F)c3)nc12)N1CC(CO)C1 [Example 127, (R)-(5-(2-(5-fluoropyridin-3-yl)pyrrolidin-1-yl)pyrazolo[1,5-a]pyrimidin-3-yl)(3-(hydroxymethyl)azetidin-1-yl)methanone]	470 nM	> 1000 nM	
C[C@@H](CO)NC(=O)c1cnn2ccc(N3CCC[C@@H]3c3cc(F)ccc3F)nc12 [Example 177, 5-((R)-2-(2,5-difluorophenyl)pyrrolidin-1-yl)-N-((S)-1-hydroxypropan-2-yl)pyrazolo[1,5-a]pyrimidine-3-carboxamide]	1.8 nM	> 1000 nM	
